# Laboratory results from patent US20230320994A1, “FUNCTIONAL IONIZABLE PHOSPHOLIPIDS” (The Board of Regents of The University of Texas System, priority 2020, published 2023).
# Test system: C57BL/6 mice
# Assay: In vivo tolerability: kidney and liver function markers
# Details: 24 hours post injection, compared with PBS
# Procedure: 10A1P16-MDOA (spleen specific) iPLNPs were administrated intravenously (IV) to C57BL/6 mice (0.25 mg kg−1). Lipopolysaccharide (LPS, 5 mg kg−1, IP) was used as the positive control and PBS (IV) was examined as the negative control. 24 hours post injection, kidney function (BUN and CREA) and liver function (ALT and AST) were evaluated. […] Data are presented as mean±s.d. (n=3 biologically independent mice). Statistical significance was analyzed by the two-tailed unpaired t-test: ****, P<0.0001; ***, P<0.001; **, P<0.01; *, P<0.05.
substance,measurement,value
Lipopolysaccharide [LPS],kidney function (BUN and CREA) and liver function (ALT and AST),severe kidney and liver injury
